Measured values as given in ChEMBL document CHEMBL1145380, “Optimization of 1,3,4-benzotriazepine-based CCK(2) antagonists to obtain potent, orally active inhibitors of gastrin-mediated gastric acid secretion” (J Med Chem, 2007).

What was measured:
[1] = target: T1, Cholecystokinin receptor type A (Homo sapiens, UniProt P32238); test: Displacement of [3H]L-364718 from human recombinant CCK1 receptor expressed in CHOK1 cells; format: cell-based, CHO-K1
T1 sequence (P32238 whole entry): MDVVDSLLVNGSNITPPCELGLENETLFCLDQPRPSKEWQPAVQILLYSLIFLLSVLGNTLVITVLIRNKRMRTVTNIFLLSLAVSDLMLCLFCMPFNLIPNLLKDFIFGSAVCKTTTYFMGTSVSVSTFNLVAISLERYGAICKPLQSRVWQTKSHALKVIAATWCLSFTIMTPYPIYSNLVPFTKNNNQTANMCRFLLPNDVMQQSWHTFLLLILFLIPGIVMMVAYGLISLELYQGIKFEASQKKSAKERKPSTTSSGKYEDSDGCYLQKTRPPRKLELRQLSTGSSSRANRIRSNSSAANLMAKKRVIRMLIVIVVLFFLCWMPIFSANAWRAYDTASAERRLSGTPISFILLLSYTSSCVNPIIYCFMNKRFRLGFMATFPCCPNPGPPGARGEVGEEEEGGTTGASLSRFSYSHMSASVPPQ

[2] = target: T2, Gastrin/cholecystokinin type B receptor (Homo sapiens, UniProt P32239); test: Displacement of [125I]BH-CCK-8S from human recombinant CCK2 receptor expressed in NIH3T3 cells
T2 sequence (P32239 whole entry): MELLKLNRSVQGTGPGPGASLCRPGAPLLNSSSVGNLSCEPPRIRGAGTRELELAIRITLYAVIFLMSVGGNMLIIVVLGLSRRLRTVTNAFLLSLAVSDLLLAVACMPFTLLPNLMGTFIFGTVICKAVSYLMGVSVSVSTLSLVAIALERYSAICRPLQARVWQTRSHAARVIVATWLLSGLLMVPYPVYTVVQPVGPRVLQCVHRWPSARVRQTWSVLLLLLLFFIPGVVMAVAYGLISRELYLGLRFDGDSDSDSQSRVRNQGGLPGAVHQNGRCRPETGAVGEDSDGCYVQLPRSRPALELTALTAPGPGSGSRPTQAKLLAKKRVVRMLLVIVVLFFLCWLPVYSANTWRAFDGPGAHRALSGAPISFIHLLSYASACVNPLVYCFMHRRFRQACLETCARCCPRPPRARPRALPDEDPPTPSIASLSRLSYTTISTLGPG

[3] = target: T3, Gastrin/cholecystokinin type B receptor (Canis lupus familiaris, UniProt P30552); test: Displacement of [125I]BH-[…] from CCK2 receptor in canine gastric mucosa; format: tissue-based
T3 sequence (P30552 whole entry): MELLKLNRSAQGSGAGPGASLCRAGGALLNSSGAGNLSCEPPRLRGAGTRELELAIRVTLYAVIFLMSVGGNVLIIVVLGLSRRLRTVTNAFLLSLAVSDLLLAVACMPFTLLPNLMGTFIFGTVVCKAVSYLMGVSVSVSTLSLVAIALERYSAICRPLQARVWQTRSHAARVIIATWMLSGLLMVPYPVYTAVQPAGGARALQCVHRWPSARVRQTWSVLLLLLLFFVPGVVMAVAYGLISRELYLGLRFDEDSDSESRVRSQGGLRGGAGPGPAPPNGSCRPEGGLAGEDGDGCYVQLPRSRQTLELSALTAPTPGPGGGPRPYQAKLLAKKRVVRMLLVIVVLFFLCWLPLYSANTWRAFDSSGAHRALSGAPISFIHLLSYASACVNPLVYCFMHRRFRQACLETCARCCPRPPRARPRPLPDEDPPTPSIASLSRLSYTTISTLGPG

[4] = target: T1, Cholecystokinin receptor type A; test: Displacement of [3H]L-364718 from human recombinant CCK1 receptor expressed in PC3 cells; format: cell-based, PC-3
[5] = target: T4, Gastrin/cholecystokinin type B receptor (Rattus norvegicus, UniProt P30553); test: Antagonist activity at CCK2 receptor in perfused rat stomach assessed as inhibition of pentagastrin-stimulated gastric acid secretion; format: functional, tissue-based; settings: read-out: pA2 (converted)
T4 sequence (P30553 whole entry): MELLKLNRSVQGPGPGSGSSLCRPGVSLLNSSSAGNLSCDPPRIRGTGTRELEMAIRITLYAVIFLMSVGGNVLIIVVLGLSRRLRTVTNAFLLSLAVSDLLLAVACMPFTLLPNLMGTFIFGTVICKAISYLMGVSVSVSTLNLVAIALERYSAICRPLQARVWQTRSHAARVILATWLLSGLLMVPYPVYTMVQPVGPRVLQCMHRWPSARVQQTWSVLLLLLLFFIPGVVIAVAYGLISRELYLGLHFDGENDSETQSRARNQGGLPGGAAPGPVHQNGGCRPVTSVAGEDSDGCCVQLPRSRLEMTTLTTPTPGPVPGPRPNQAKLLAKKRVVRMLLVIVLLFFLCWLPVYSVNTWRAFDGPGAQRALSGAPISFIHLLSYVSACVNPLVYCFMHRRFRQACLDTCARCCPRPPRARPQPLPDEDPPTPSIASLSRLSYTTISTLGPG

[6] = target: T5, Gastrin/cholecystokinin type B receptor (Canis lupus familiaris) (UniProt P30552); test: Inhibition of pentagastrin-stimulated gastric acid secretion in conscious gastric fistula dog at 1 mg/kg, iv; format: functional, organism-based; set-up: dose 1 mg/kg; settings: Stomach
T5 sequence (whole entry): T3 sequence (P30552 whole entry)

[7] = target: T5, Gastrin/cholecystokinin type B receptor (Canis lupus familiaris); test: Inhibition of pentagastrin-stimulated gastric acid secretion in conscious gastric fistula dog at 0.05 mg/kg, iv; format: functional, organism-based; set-up: dose 0.05 mg/kg; settings: Stomach

Row | SMILES | Ki [1] [nM] | Ki [2] [nM] | Ki [4] [nM] | also measured
1 | CC(C)(C)C(=O)CN1C(=O)N(CC(=O)Nc2cccc(Cc3nnn[nH]3)c2)N=C(C2CCCCC2)c2ccccc21 | > 10000 | 4.68 |  | 
2 | O=C(O)Cc1cccc(NC(=O)CN2N=C(C3CCCCC3)c3ccccc3N(CC(=O)C3CCCC3)C2=O)c1 | > 10000 | 0.282 |  | Ki [3]: 6.31 nM
3 | CC(=O)CN1C(=O)N(CC(=O)Nc2cccc(C(=O)O)c2)N=C(C2CCCCC2)c2ccccc21 |  | 331 | > 10000 | 
4 | O=C(CN1N=C(C2CCCCC2)c2ccccc2N(CC(=O)C23CC4CC(CC(C4)C2)C3)C1=O)Nc1cccc(C(=O)O)c1 |  | 5.62 | 1910 | 
5 | CC(C)CCN1C(=O)N(CC(=O)Nc2cccc(C(=O)O)c2)N=C(C2CCCCC2)c2ccccc21 |  | 20.4 | > 10000 | 
6 | CC(C)(C)C(=O)CN1C(=O)N(CC(=O)Nc2cccc(-c3nc(C(=O)O)co3)c2)N=C(C2CCCCC2)c2ccccc21 | 661 | 0.363 |  | 
7 | CC(C)(C)C(=O)CN1C(=O)N(CC(=O)Nc2cccc(S(=O)(=O)CC(=O)O)c2)N=C(C2CCCCC2)c2ccccc21 |  | 4.27 | > 10000 | 
8 | CC(C)(C)C(=O)CN1C(=O)N(CC(=O)Nc2cccc(C(=O)O)c2)N=C(C2CCCC2)c2ccccc21 |  | 24 | > 10000 | 
9 | O=C(CN1N=C(C2CCCCC2)c2ccccc2N(CC(=O)N2CCCC2)C1=O)Nc1cccc(C(=O)O)c1 |  | 16.2 | > 10000 | 
10 | CC(C)(C)C(=O)CN1C(=O)N(CC(=O)Nc2cccc(-c3cn(CC(=O)O)cn3)c2)N=C(C2CCCCC2)c2ccccc21 | 1700 | 4.07 |  | 
11 | CC(C)(C)C(=O)CN1C(=O)N(CC(=O)Nc2cccc(NCC(=O)O)c2)N=C(C2CCCCC2)c2ccccc21 |  | 6.17 | 8510 | 
12 | Cc1ccccc1C(=O)CN1C(=O)N(CC(=O)Nc2cccc(C(=O)O)c2)N=C(C2CCCCC2)c2ccccc21 |  | 7.59 | > 10000 | Ki [3]: 26.3 nM
13 | CC(C)(C)C(=O)CN1C(=O)N(CC(=O)Nc2cccc3c2cnn3CC(=O)O)N=C(C2CCCCC2)c2ccccc21 | 6920 | 2.75 |  | 
14 | CN(c1cccc(NC(=O)CN2N=C(C3CCCCC3)c3ccccc3N(CC(=O)C(C)(C)C)C2=O)c1)c1nn[nH]n1 |  | 1.95 | 6460 | Kb [5]: 24 nM; Ki [3]: 4.68 nM
15 | CC(C)(C)C(=O)CN1C(=O)N(CC(=O)Nc2cccc(-c3csc(C(=O)O)n3)c2)N=C(C2CCCCC2)c2ccccc21 | > 10000 | 0.661 |  | 
16 | CNc1cccc(NC(=O)N[C@@H]2N=C(c3ccccn3)c3ccccc3N(CC(=O)C(C)(C)C)C2=O)c1 [NETAZEPIDE] | 28.8 |  |  | inhibition [6]: 66%; inhibition [7]: 97%
17 | CC(C)(C)C(=O)CN1C(=O)N(CC(=O)Nc2cccc(CCC(=O)O)c2)N=C(C2CCCCC2)c2ccccc21 | > 10000 | 1.86 |  | 
18 | CC(C)(C)C(=O)CN1C(=O)N(CC(=O)Nc2ccc3c(cnn3CC(=O)O)c2)N=C(C2CCCCC2)c2ccccc21 | 8130 | 9.33 |  | 
19 | CN(CC(=O)O)c1cccc(NC(=O)CN2N=C(C3CCCCC3)c3ccccc3N(CC(=O)C(C)(C)C)C2=O)c1 | 6460 | 1.07 |  | 
20 | O=C(CN1N=C(C2CCCCC2)c2ccccc2N(CC(=O)C2CCCC2)C1=O)Nc1cccc(C(=O)O)c1 |  | 1 | > 10000 | Kb [5]: 1.95 nM; Ki [3]: 7.08 nM
21 | CC(C)(C)C(=O)CN1C(=O)N(CC(=O)Nc2cccc(C(=O)NS(C)(=O)=O)c2)N=C(C2CCCCC2)c2ccccc21 |  | 3.89 | 2950 | 

Row | SMILES | Ki [1] [nM] | Ki [2] [nM] | Ki [4] [nM] | also measured
22 | CC(C)(C)C(=O)CN1C(=O)N(CC(=O)Nc2cccc(-c3nn[nH]n3)c2)N=C(C2CCCCC2)c2ccccc21 | 1740 | 1 |  | Kb [5]: 7.76 nM; Ki [3]: 3.16 nM
23 | O=C(O)CCc1cccc(NC(=O)CN2N=C(C3CCCCC3)c3ccccc3N(CC(=O)C3CCCC3)C2=O)c1 | 2510 | 0.339 |  | Ki [3]: 4.27 nM
24 | CC(C)(C)C(=O)CN1C(=O)N(CC(=O)Nc2cccc3c2ccn3CC(=O)O)N=C(C2CCCCC2)c2ccccc21 | > 10000 | 6.03 |  | 
25 | CC(C)(C)C(=O)CN1C(=O)N(CC(=O)Nc2ccc3ncn(CC(=O)O)c3c2)N=C(C2CCCCC2)c2ccccc21 | > 10000 | 17 |  | 
26 | CC(C)(C)C(=O)CN1C(=O)N(CC(=O)Nc2ccc3cnn(CC(=O)O)c3c2)N=C(C2CCCCC2)c2ccccc21 | 2140 | 0.832 |  | 
27 | O=C(CN1N=C(C2CCCCC2)c2ccccc2N(CC(=O)C2CCCCC2)C1=O)Nc1cccc(C(=O)O)c1 | 7940 | 0.794 |  | 
28 | CC(C)(C)C(=O)CN1C(=O)N(CC(=O)Nc2ccc3ccn(CC(=O)O)c3c2)N=C(C2CCCCC2)c2ccccc21 | 550 | 0.295 |  | Ki [3]: 2.4 nM
29 | CC(C)(C)C(=O)CN1C(=O)N(CC(=O)Nc2cccc(SCC(=O)O)c2)N=C(C2CCCCC2)c2ccccc21 |  | 0.646 | 646 | Kb [5]: 2.75 nM; Ki [3]: 5.75 nM
30 | CC(C)(C)C(=O)CN1C(=O)N(CC(=O)Nc2cccc(-c3ccc(C(=O)O)o3)c2)N=C(C2CCCCC2)c2ccccc21 | 457 | 0.245 |  | 
31 | CC(C)(C)C(=O)CN1C(=O)N(CC(=O)Nc2cccc(C(=O)O)c2)N=C(C23CC4CC(CC(C4)C2)C3)c2ccccc21 |  | 24 | 372 | 
32 | O=C(O)CSc1cccc(NC(=O)CN2N=C(C3CCCCC3)c3ccccc3N(CC(=O)C3CCCC3)C2=O)c1 | 2090 |  |  | Ki [3]: 4.79 nM
33 | CC(C)(C)C(=O)CN1C(=O)N(CC(=O)Nc2cccc(-c3cccn3CC(=O)O)c2)N=C(C2CCCCC2)c2ccccc21 |  | 0.912 |  | 
34 | CC(C)(C)C(=O)CN1C(=O)N(CC(=O)Nc2ccc3c(ccn3CC(=O)O)c2)N=C(C2CCCCC2)c2ccccc21 | 2510 | 0.776 |  | 
35 | CN1C(=O)N(CC(=O)Nc2cccc(C(=O)O)c2)N=C(C2CCCCC2)c2ccccc21 |  | 1200 | > 10000 | 
36 | CC(C)(C)C(=O)CN1C(=O)N(CC(=O)Nc2cccc(SCc3nn[nH]n3)c2)N=C(C2CCCCC2)c2ccccc21 | 389 | 0.708 |  | 
37 | CC(C)(C)C(=O)CN1C(=O)N(CC(=O)Nc2cccc(C(=O)O)c2)N=C(C2CCCCCC2)c2ccccc21 |  | 4.79 | 5750 | 
38 | CC(C)(C)C(=O)CN1C(=O)N(CC(=O)Nc2cccc(C(=O)O)c2)N=C(C2CCCCC2)c2ccccc21 |  |  | > 10000 | 
39 | CCOCCN1C(=O)N(CC(=O)Nc2cccc(C(=O)O)c2)N=C(C2CCCCC2)c2ccccc21 |  | 490 |  | 
40 | CC(C)(C)C(=O)CN1C(=O)N(CC(=O)Nc2cccc(OCC(=O)O)c2)N=C(C2CCCCC2)c2ccccc21 |  | 5.5 | 4070 | 
41 | O=C(O)c1cccc(NC(=O)c2nc(C3CCCCC3)[nH]c2COC23CC4CC(CC(C4)C2)C3)c1 |  | 19.5 | > 10000 | inhibition [6]: 66%; inhibition [7]: 97%
42 | CC(C)(C)C(=O)CN1C(=O)N(CC(=O)Nc2cccc(-c3cccc(C(=O)O)c3)c2)N=C(C2CCCCC2)c2ccccc21 | 550 | 1.58 |  | 
